The assay concerns the target BACE1 (Homo sapiens, UniProt P56817). Nature of the assay: In vitro enzymatic BACE FRET (fluorescence resonance energy transfer) assay. The assay is classed as biochemical. As for the experimental part: In Vitro Enzymatic BACE FRET (Fluorescence Resonance Energy Transfer) Assay (Enzyme Assay Data in Table 1)
The assay buffer used in this screen is 0.05 M acetate, pH 4.2, 10% DMSO final, 100 uM genapol (which is a nonionic detergent, below its Critical Micelle Concentration). […] The assay is effectively started by the addition of FRET substrate (50 nM) and the combination is incubated for one hour. The FRET assay is terminated with by addition of Tris buffer, which raises the pH to neutrality, and the fluorescence is determined. The FRET substrate is a peptide with commercially available fluorophore and quencher, on opposite sides of the BACE cleavage site. Proteolytic cleavage of the FRET substrate releases quenching of fluorescence (excitation […] and emission […]).
BACE1, sequence (P56817 46-501, species assumed): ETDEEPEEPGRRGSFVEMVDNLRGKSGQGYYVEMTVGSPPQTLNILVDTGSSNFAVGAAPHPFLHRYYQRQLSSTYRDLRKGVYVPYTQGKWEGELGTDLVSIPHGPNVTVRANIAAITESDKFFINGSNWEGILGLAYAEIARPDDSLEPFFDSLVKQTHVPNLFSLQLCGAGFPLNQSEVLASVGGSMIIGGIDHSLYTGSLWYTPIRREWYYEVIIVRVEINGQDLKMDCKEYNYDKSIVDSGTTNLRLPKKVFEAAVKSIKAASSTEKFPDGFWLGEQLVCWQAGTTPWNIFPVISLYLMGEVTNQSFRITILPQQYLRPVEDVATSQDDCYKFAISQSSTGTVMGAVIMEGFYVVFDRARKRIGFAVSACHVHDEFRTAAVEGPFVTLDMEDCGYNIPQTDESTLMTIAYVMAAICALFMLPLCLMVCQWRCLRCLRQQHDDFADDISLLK
As for `C=CC[C@H](NC(C)=O)[C@H](O)CN[C@H]1CC2(CCC2)Oc2ccc(CC(C)(C)C)cc21` [Example 33, N-((1S)-1-((1R)-2-(((4S)-6-(2,2-dimethylpropyl)-3,4-dihydrospiro[chromene-2,1′-cyclobutan]-4-yl)amino)-1-hydroxyethyl)-3-buten-1-yl)acetamide], the IC50 worked out at 212 nM.
Regarding `C=CC[C@H](NC(=O)COC)[C@H](O)CN[C@H]1CC2(CCC2)Oc2ccc(CC(C)(C)C)cc21` [Example 34, N-((1S)-1-((1R)-2-(((4S)-6-(2,2-dimethylpropyl)-3,4-dihydrospiro[chromene-2,1′-cyclobutan]-4-yl)amino)-1-hydroxyethyl)-3-buten-1-yl)-2-(methyloxy)acetamide], the IC50 was 61 nM.
The figure for `C=CC[C@H](NC(=O)COC)[C@H](O)CNC1CC2(CCC2)Oc2ncc(CC(C)C)cc21` (stereo partly drawn) [Example 39, N-((1S)-1-((1R)-1-hydroxy-2-((6′-(2-methylpropyl)-3′,4′-dihydrospiro[cyclobutane-1,2′-pyrano[2,3-b]pyridin]-4′-yl)amino)ethyl)-3-buten-1-yl)-2-(methyloxy)acetamide] is 147 nM; for `C=CC[C@H](NC(C)=O)[C@H](O)CN[C@H]1C[C@]2(CC[C@H]2O)Oc2ncc(CC(C)(C)C)cc21` [Example 52, N-((1S)-1-((1R)-2-(((1S,2R,4′S)-6′-(2,2-dimethylpropyl)-2-hydroxy-3′,4′-dihydrospiro[cyclobutane-1,2′-pyrano[2,3-b]pyridin]-4′-yl)amino)-1-hydroxyethyl)-3-buten-1-yl)acetamide] it is 70 nM; for `C=CC[C@H](NC(C)=O)[C@H](O)CN[C@H]1C[C@@]2(CC[C@@H]2O)Oc2ncc(CC(C)(C)C)cc21` [Example 53, N-((1S)-1-((1R)-2-(((1R,2S,4′S)-6′-(2,2-dimethylpropyl)-2-hydroxy-3′,4′-dihydrospiro[cyclobutane-1,2′-pyrano[2,3-b]pyridin]-4′-yl)amino)-1-hydroxyethyl)-3-buten-1-yl)acetamide] it is 8220 nM.
Regarding `CCC[C@H](NC(C)=O)[C@H](O)CN[C@H]1C[C@@]2(CC[C@@H]2O)Oc2ncc(CC(C)(C)C)cc21` [Example 54, N-((1S)-1-((1R)-2-(((1R,2S,4′S)-6′-(2,2-dimethylpropyl)-2-hydroxy-3′,4′-dihydrospiro[cyclobutane-1,2′-pyrano[2,3-b]pyridin]-4′-yl)amino)-1-hydroxyethyl)butyl)acetamide], the IC50 is 18600 nM.
For `CC(=O)N[C@H]([C@H](O)CN[C@H]1CC2(CCC2)Oc2ncc(CC(C)(C)C)cc21)C(C)(C)C` [Example 81, N-((1S)-1-((1R)-2-(((4′S)-6′-(2,2-dimethylpropyl)-3′,4′-dihydrospiro[cyclobutane-1,2′-pyrano[2,3-b]pyridin]-4′-yl)amino)-1-hydroxyethyl)-2,2-dimethylpropyl)acetamide], the half-inhibitory concentration (IC50) came to 21400 nM.
Regarding `C=CC[C@H](NC(=O)[C@H]1CCCO1)[C@H](O)CN[C@H]1CC2(CCC2)Oc2ncc(CC(C)(C)C)cc21` [Example 92, (2R)-N-((1S)-1-((1R)-2-(((4′S)-6′-(2,2-dimethylpropyl)-3′,4′-dihydrospiro[cyclobutane-1,2′-pyrano[2,3-b]pyridin]-4′-yl)amino)-1-hydroxyethyl)-3-buten-1-yl)tetrahydro-2-furancarboxamide], the IC50 worked out at 84 nM.
In the case of `C=CC[C@H](NC(=O)c1ccno1)[C@H](O)CN[C@H]1CC2(CCC2)Oc2ncc(CC(C)(C)C)cc21` [Example 93, N-((1S)-1-((1R)-2-(((4′S)-6′-(2,2-dimethylpropyl)-3′,4′-dihydrospiro[cyclobutane-1,2′-pyrano[2,3-b]pyridin]-4′-yl)amino)-1-hydroxyethyl)-3-buten-1-yl)-5-isoxazolecarboxamide], the IC50 came to 43 nM.

The values above are taken from patent publication US8633315B2, “Substituted hydroxyethyl amine compounds as beta-secretase modulators and methods of use” (Amgen Inc., priority 2007, dated 2014).
